Reference: ChEMBL document CHEMBL2010795, “Anti-inflammatory and anti-arthritic effects of new synthetic 3-(4-hydroxyphenyl)-4-(4-thiomethoxyphenyl)-1H-pyrrole-2,5-dione” (2012)
Each block holds one molecule with its values, some of them ahead of it. Activity calls are given as the source filed them. The rule behind the calls is not given here.

Assays:
[1] = test system: RAW264.7; assay: Effect on COX-1 mRNA expression in LPS-stimulated mouse RAW264.7 cells; assay type: functional, cell-based
[2] = biological target: T1, Prostaglandin G/H synthase 1 (Ovis aries) (UniProt P05979); assay: Inhibition of ovine recombinant COX1 assessed as PGF2alpha production at 0.1 to 40 uM preincubated for 10 mins before substrate addition by EIA
T1 sequence (whole entry): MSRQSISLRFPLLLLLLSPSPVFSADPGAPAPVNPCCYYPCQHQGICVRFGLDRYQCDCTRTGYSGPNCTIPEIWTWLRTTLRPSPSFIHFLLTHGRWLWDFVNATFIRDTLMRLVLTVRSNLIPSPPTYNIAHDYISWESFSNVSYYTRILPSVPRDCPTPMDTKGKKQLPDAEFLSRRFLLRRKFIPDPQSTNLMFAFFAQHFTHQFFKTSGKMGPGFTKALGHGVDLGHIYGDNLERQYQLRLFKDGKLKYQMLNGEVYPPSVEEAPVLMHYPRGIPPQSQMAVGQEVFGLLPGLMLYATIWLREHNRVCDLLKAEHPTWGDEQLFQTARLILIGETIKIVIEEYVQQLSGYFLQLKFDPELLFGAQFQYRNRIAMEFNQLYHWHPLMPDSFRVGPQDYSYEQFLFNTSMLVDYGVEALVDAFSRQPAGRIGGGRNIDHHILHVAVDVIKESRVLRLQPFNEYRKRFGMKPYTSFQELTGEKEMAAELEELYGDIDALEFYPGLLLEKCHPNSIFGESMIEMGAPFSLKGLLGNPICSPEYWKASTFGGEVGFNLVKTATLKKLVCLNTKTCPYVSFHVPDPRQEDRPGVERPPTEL

[3] = test system: RAW264.7; assay: Inhibition of LPS-induced IL-6 production in mouse RAW264.7 cells at 10 to 40 uM treated 1 hr before LPS challenge measured after 24 hrs by EIA; assay type: functional, cell-based
[4] = biological target: T2, Prostaglandin G/H synthase 2 (Homo sapiens) (UniProt P35354); assay: Inhibition of human recombinant COX2 assessed as PGF2alpha production preincubated for 10 mins before substrate addition by EIA
T2 sequence (whole entry): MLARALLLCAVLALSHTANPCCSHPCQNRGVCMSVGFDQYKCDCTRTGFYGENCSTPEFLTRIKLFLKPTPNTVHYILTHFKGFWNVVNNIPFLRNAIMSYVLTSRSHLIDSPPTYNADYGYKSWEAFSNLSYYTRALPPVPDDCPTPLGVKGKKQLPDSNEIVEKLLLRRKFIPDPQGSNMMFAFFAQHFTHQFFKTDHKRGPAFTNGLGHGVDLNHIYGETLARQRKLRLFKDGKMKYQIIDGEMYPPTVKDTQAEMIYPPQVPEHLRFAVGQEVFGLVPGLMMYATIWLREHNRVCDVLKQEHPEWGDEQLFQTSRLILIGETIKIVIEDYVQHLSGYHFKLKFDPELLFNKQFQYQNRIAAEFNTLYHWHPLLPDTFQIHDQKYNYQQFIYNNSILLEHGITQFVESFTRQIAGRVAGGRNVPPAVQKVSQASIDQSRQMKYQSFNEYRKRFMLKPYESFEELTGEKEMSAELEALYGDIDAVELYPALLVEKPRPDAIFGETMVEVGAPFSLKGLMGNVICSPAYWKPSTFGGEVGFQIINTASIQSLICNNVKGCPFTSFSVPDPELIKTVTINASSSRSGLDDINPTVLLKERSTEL

[5] = test system: Rattus norvegicus; assay: Antiarthritic activity in Freund's complete adjuvant-induced Sprague-Dawley rat arthritis model assessed as inhibition of ankle swelling at 25 to 50 mg/kg, po administered daily on day 9 to day 19 post challenge; assay type: functional, organism-based
[6] = test system: Rattus norvegicus; assay: Antiinflammatory activity in rat assessed as inhibition of carrageenan-induced PGE2 production in hind paw at 25 mg/kg, po administered 1 hr before carrageenan challenge measured up to 5 hrs by EIA; assay type: functional, organism-based; set-up: dose 25 mg/kg
[7] = test system: Rattus norvegicus; assay: Antiarthritic activity in Freund's complete adjuvant-induced Sprague-Dawley rat arthritis model assessed as inhibition of erythema at 25 to 50 mg/kg, po administered daily on day 9 to day 19 post challenge; assay type: functional, organism-based
[8] = test system: RAW264.7; assay: Inhibition of LPS-induced IL-1 beta mRNA expression in mouse RAW264.7 cells at 10 to 40 uM treated 1 hr before LPS challenge measured after 24 hrs by RT-PCR analysis; assay type: functional, cell-based
[9] = test system: RAW264.7; assay: Effect on COX-1 protein expression in LPS-stimulated mouse RAW264.7 cells; assay type: functional, cell-based
[10] = test system: RAW264.7; assay: Inhibition of LPS-induced IL-6 mRNA expression in mouse RAW264.7 cells at 10 to 40 uM treated 1 hr before LPS challenge measured after 24 hrs by RT-PCR analysis; assay type: functional, cell-based
[11] = test system: RAW264.7; assay: Inhibition of LPS-induced iNOS mRNA expression in mouse RAW264.7 cells assessed as reduction in NO production at 10 to 40 uM treated 1 hr before LPS challenge measured after 4 hrs by RT-PCR analysis; assay type: functional, cell-based
[12] = test system: Rattus norvegicus; assay: Antiinflammatory activity in rat assessed as inhibition of carrageenan-induced hind paw edema at 25 mg/kg, po administered 1 hr before carrageenan challenge measured up to 5 hrs by plethysmometer; assay type: functional, organism-based; set-up: dose 25 mg/kg
[13] = test system: Rattus norvegicus; assay: Antiinflammatory activity in rat assessed as inhibition of carrageenan-induced hind paw edema at 50 mg/kg, po administered 1 hr before carrageenan challenge measured up to 5 hrs by plethysmometer; assay type: functional, organism-based; set-up: dose 50 mg/kg
[14] = test system: Rattus norvegicus; assay: Antiarthritic activity in Freund's complete adjuvant-induced Sprague-Dawley rat arthritis model assessed as reduction in paw volume at 50 mg/kg, po administered daily on day 9 to day 19 post challenge; assay type: functional; set-up: scale not given: the % may be the effect or the level left
[15] = test system: RAW264.7; assay: Inhibition of LPS-induced nitric oxide production in mouse RAW264.7 cells at 10 to 40 uM treated 1 hr before LPS challenge measured after 24 hrs by Griess method; assay type: functional, cell-based
[16] = test system: Rattus norvegicus; assay: Antiarthritic activity in Freund's complete adjuvant-induced Sprague-Dawley rat arthritis model assessed as inhibition of edema at 25 to 50 mg/kg, po administered daily on day 9 to day 19 post challenge; assay type: functional, organism-based
[17] = test system: Rattus norvegicus; assay: Antiarthritic activity in Freund's complete adjuvant-induced Sprague-Dawley rat arthritis model assessed as reduction in IL-6 mRNA expression at 50 mg/kg, po administered daily on day 9 to day 19 post challenge measured on day 20 by RT-PCR analysis; assay type: functional, organism-based; set-up: dose 50 mg/kg
[18] = test system: Rattus norvegicus; assay: Antiarthritic activity in Freund's complete adjuvant-induced Sprague-Dawley rat arthritis model assessed as inhibition of joint dysfunction at 25 to 50 mg/kg, po administered daily on day 9 to day 19 post challenge; assay type: functional, organism-based
[19] = test system: Rattus norvegicus; assay: Antiarthritic activity in Freund's complete adjuvant-induced Sprague-Dawley rat arthritis model at 50 mg/kg, po administered daily on day 9 to day 19 post challenge; assay type: functional, organism-based; set-up: dose 50 mg/kg
[20] = test system: Rattus norvegicus; assay: Antiarthritic activity in Freund's complete adjuvant-induced Sprague-Dawley rat arthritis model at 25 mg/kg, po administered daily on day 9 to day 19 post challenge; assay type: functional, organism-based; set-up: dose 25 mg/kg
[21] = test system: RAW264.7; assay: Inhibition of LPS-induced PGE2 production in mouse RAW264.7 cells treated 1 hr before LPS challenge measured after 24 hrs by EIA; assay type: functional, cell-based
[22] = test system: Rattus norvegicus; assay: Antiinflammatory activity in rat assessed as inhibition of carrageenan-induced myeloperoxidase activity in hind paw at 25 mg/kg, po administered 1 hr before carrageenan challenge measured up to 5 hrs by EIA; assay type: functional, organism-based; set-up: dose 25 mg/kg
[23] = test system: RAW264.7; assay: Effect on COX-2 mRNA expression in LPS-stimulated mouse RAW264.7 cells at 10 to 40 uM preincubated for 1 hr prior LPS challenge measured after 4 hrs by RT-PCR analysis; assay type: functional, cell-based
[24] = test system: RAW264.7; assay: Inhibition of LPS-induced IL-1 beta production in mouse RAW264.7 cells at 10 to 40 uM treated 1 hr before LPS challenge measured after 24 hrs by EIA; assay type: functional, cell-based
[25] = test system: Rattus norvegicus; assay: Antiarthritic activity in Freund's complete adjuvant-induced Sprague-Dawley rat arthritis model assessed as reduction in plasma PGE2 levels at 50 mg/kg, po administered daily on day 9 to day 19 post challenge measured after 19 days by EIA; assay type: functional; set-up: scale not given: the % may be the effect or the level left
[26] = test system: RAW264.7; assay: Effect on COX-2 protein expression in LPS-stimulated mouse RAW264.7 cells at 10 to 40 uM preincubated for 1 hr prior LPS challenge measured after 24 hrs by Western blot analysis; assay type: functional, cell-based
[27] = test system: RAW264.7; assay: Inhibition of iNOS protein expression in mouse RAW264.7 cells assessed as reduction in NO production by Western blot analysis; assay type: functional, cell-based
[28] = test system: Rattus norvegicus; assay: Antiarthritic activity in Freund's complete adjuvant-induced Sprague-Dawley rat arthritis model assessed as reduction in IL-1beta mRNA expression at 50 mg/kg, po administered daily on day 9 to day 19 post challenge measured on day 20 by RT-PCR analysis; assay type: functional, organism-based; set-up: dose 50 mg/kg

inhibition [2]: inactive
inhibition [4]: Dose-dependent effect
SMILES: CSc1ccc(C2=C(c3ccc(O)cc3)C(=O)NC2=O)cc1
inhibition [1]: inactive
inhibition [3]: Active
inhibition [5]: Active
inhibition [6]: Active
inhibition [7]: Active
inhibition [8]: Active
inhibition [9]: inactive
inhibition [10]: Active
inhibition [11]: Active
inhibition [12]: Active
inhibition [13]: Active
Activity [14]: 53%
inhibition [15]: Active
inhibition [16]: Active
Activity [17]: Active
inhibition [18]: Active
Activity [19]: Active
Activity [20]: Active
inhibition [21]: Dose-dependent effect
inhibition [22]: Active
inhibition [23]: inactive
inhibition [24]: Active
Activity [25]: 42%
inhibition [26]: inactive
inhibition [27]: Active
Activity [28]: Active

SMILES: CC(C)Cc1ccc(C(C)C(=O)O)cc1 (stereo not given)
inhibition [13]: Active
Activity [19]: Active
